Values after ≈ are worked out from the molar mass of the structure shown. Where two headings read alike, the source gives them in different places. Where a SMILES comes first, the peptide text is derived from it. [ ]: non-standard residue; d: D form.
Tests used:
[1] = system: MDRST 8009; format: cell-based, Salmonella typhimurium; conditions: agent alone
Outline: (§1)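 MIC read-out = lowest peptide level with no bacterial proliferation. Strains diluted in MH medium to 2×10^6 CFU; peptide twofold serial dilutions in MH added 1:1 in microtiter wells.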

[2] = system: MDREC 1229; assay: MIC of antibiotic during combined treatment with antimicrobial peptide; format: cell-based, Escherichia coli
Outline: (§2)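 Broth microdilution in MH medium; strains were diluted to 2×10^6 CFU per ml before plating. Peptide was serially diluted stepwise at 2:1 starting from its MIC, and MH-diluted antibiotic was then added to determine MIC. The reversed arrangement was also tested.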

[3] = system: S. epidermidis; assay: microbe, parasite or virus in culture; format: cell-based, Staphylococcus epidermidis
Outline: as §1

[4] = system: A. baumannii; assay: MIC of antimicrobial peptide during combined treatment with antibiotic; format: cell-based, Acinetobacter baumannii
Outline: as §2

[5] = system: MDRAB 12035; assay: as above; format: cell-based, Acinetobacter baumannii
Outline: as §2

[6] = system: E. coli; assay: MIC of antibiotic during combined treatment with antimicrobial peptide; format: cell-based, Escherichia coli; conditions: for Antibiotic MIC, Erythromycin / Antibiotic MIC, Linezolid / Antibiotic MIC, Vancomycin: E. coli
Outline: (§3)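 Using MH broth, we determined combination MICs by titrating the antibiotic into wells and then repeating under the reverse dilution scheme.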

[7] = system: E. coli; format: cell-based, Escherichia coli; conditions: E. coli
Outline: as §2

[8] = system: MDREC 1229; format: cell-based, Escherichia coli
Outline: as §2

[9] = system: A. baumannii; assay: MIC of antibiotic during combined treatment with antimicrobial peptide; format: cell-based, Acinetobacter baumannii; conditions: A. baumannii
Outline: as §3

[10] = system: E. coli; assay: microbe, parasite or virus in culture; format: cell-based, Escherichia coli; conditions: 16 h
Outline: as §1

[11] = system: MDREC 1229; assay: microbe, parasite or virus in culture; format: cell-based, Escherichia coli; conditions: MDREC 1229
Outline: as §1

[12] = system: P. aeruginosa; assay: microbe, parasite or virus in culture; format: cell-based, Pseudomonas aeruginosa
Outline: as §1

[13] = system: B. subtilis; assay: microbe, parasite or virus in culture; format: cell-based, Bacillus subtilis
Outline: as §1

[14] = peptide treatment concentration 1 μg/ml
[15] = peptide treatment concentration 2 μg/ml
[16] = peptide treatment concentration 4 μg/ml
[17] = peptide treatment concentration 6 μg/ml
[18] = peptide treatment concentration 8 μg/ml
[19] = peptide treatment concentration 16 μg/ml
[20] = peptide treatment concentration 32 μg/ml
[21] = peptide treatment concentration 64 μg/ml
[22] = erythromycin 4 μg/ml (Conc./MIC 1/8)
[23] = erythromycin 8 μg/ml (Conc./MIC 1/4)
[24] = erythromycin 16 μg/ml (Conc./MIC 1/2)
[25] = erythromycin 32 μg/ml (Conc./MIC 1)
[26] = vancomycin 512 μg/ml (Conc./MIC 1/2)
[27] = vancomycin 1024 μg/ml (Conc./MIC 1)
[28] = linezolid 64 μg/ml (Conc./MIC 1/8)
[29] = linezolid 512 μg/ml (Conc./MIC 1)
[30] = combined with peptide at 1 μg/ml
[31] = combined with peptide at 2 μg/ml
[32] = combined with peptide at 4 μg/ml
[33] = combined with peptide at 6 μg/ml
[34] = combined with peptide at 8 μg/ml
[35] = combined with peptide at 16 μg/ml
[36] = combined with peptide at 32 μg/ml
[37] = combined with peptide at 64 μg/ml

## CC[C@H](C)[C@H](NC(=O)[C@H](CCCCN)NC(=O)[C@H](Cc1c[nH]c2ccccc12)NC(=O)[C@@H](N)CCCNC(=N)N)C(=O)N[C@@H](Cc1ccccc1)C(=O)N[C@@H](CCCCN)C(=O)N[C@@H](CCCCN)C(=O)N[C@H](C(=O)N[C@H](CC(C)C)C(=O)N[C@@H](CCCCN)C(=O)N[C@@H](CC(C)C)C(=O)N[C@@H](CC(C)C)C(=O)N[C@@H](Cc1c[nH]cn1)C(=O)N[C@@H](CCCCN)C(=O)N[C@@H](Cc1ccccc1)C(=O)N[C@@H](CCCCN)C(=O)N[C@@H](CCCCN)C(=O)N[C@@H](Cc1ccccc1)C(N)=O)[C@@H](C)CC [PapMA-21, RWK IFK KIl KLL HKF KKF-NH2] (H-RWKIFKKI[dL]KLLHKFKKF-NH2; N-terminus assumed)
[1]
  Minimal inhibitory concentration MIC: 32 µg/mL (≈ 13.3 µM)
[2]; [14]
  Antibiotic MIC, Erythromycin: 128 µg/mL
  Antibiotic MIC, Linezolid: >128 µg/mL
  Antibiotic MIC, Vancomycin: >128 µg/mL
[2]; [15]
  Antibiotic MIC, Erythromycin: 64 µg/mL
  Antibiotic MIC, Linezolid: >128 µg/mL
  Antibiotic MIC, Vancomycin: >128 µg/mL
[2]; [16]
  Antibiotic MIC, Erythromycin: 32 µg/mL
  Antibiotic MIC, Linezolid: 128 µg/mL
  Antibiotic MIC, Vancomycin: >128 µg/mL
[2]; [17]
  Antibiotic MIC, Erythromycin: 8 µg/mL
  Antibiotic MIC, Linezolid: 64 µg/mL
  Antibiotic MIC, Vancomycin: >128 µg/mL
[2]; [18]
  Antibiotic MIC, Erythromycin: 4 µg/mL
  Antibiotic MIC, Linezolid: 32 µg/mL
  Antibiotic MIC, Vancomycin: 128 µg/mL
[2]; [19]
  Antibiotic MIC, Erythromycin: 2 µg/mL
  Antibiotic MIC, Linezolid: 16 µg/mL
  Antibiotic MIC, Vancomycin: 16 µg/mL
[2]; [20]
  Antibiotic MIC, Erythromycin: 0 µg/mL
  Antibiotic MIC, Linezolid: 0 µg/mL
  Antibiotic MIC, Vancomycin: 0 µg/mL
[2]; [21]
  Antibiotic MIC, Erythromycin: 0 µg/mL
  Antibiotic MIC, Linezolid: 0 µg/mL
  Antibiotic MIC, Vancomycin: 0 µg/mL
[3]
  Minimal inhibitory concentration MIC: >128 µg/mL
[4]; [22]
  Peptide MIC during treatment with erythromycin: 8 µg/mL
[4]; [23]
  Peptide MIC during treatment with erythromycin: 4 µg/mL
[4]; [24]
  Peptide MIC during treatment with erythromycin: 2 µg/mL
[4]; [25]
  Peptide MIC during treatment with erythromycin: 0 µg/mL
[4]; linezolid 32 μg/ml (Conc./MIC 1/8)
  Peptide MIC during treatment with linezolid: 4 µg/mL
[4]; linezolid 64 μg/ml (Conc./MIC 1/4)
  Peptide MIC during treatment with linezolid: 4 µg/mL
[4]; linezolid […] (Conc./MIC 1)
  Peptide MIC during treatment with linezolid: 0 µg/mL
[4]; linezolid […] (Conc./MIC 1/2)
  Peptide MIC during treatment with linezolid: 1 µg/mL
[4]; [26]
  Peptide MIC during treatment with vancomycin: 0.25 µg/mL
[4]; [27]
  Peptide MIC during treatment with vancomycin: 0 µg/mL
[4]; vancomycin […] (Conc./MIC 1/4)
  Peptide MIC during treatment with vancomycin: 0.5 µg/mL
[4]; vancomycin […] (Conc./MIC 1/8)
  Peptide MIC during treatment with vancomycin: 4 µg/mL
[5]; [22]
  Peptide MIC during treatment with erythromycin: 8 µg/mL
[5]; [23]
  Peptide MIC during treatment with erythromycin: 8 µg/mL
[5]; [24]
  Peptide MIC during treatment with erythromycin: 4 µg/mL
[5]; [25]
  Peptide MIC during treatment with erythromycin: 0 µg/mL
[5]; [28]
  Peptide MIC during treatment with linezolid: 4 µg/mL
[5]; [29]
  Peptide MIC during treatment with linezolid: 0 µg/mL
[5]; linezolid […] (Conc./MIC 1/2)
  Peptide MIC during treatment with linezolid: 1 µg/mL
[5]; linezolid […] (Conc./MIC 1/4)
  Peptide MIC during treatment with linezolid: 4 µg/mL
[5]; [26]
  Peptide MIC during treatment with vancomycin: 2 µg/mL
[5]; [27]
  Peptide MIC during treatment with vancomycin: 1 µg/mL
[5]; vancomycin […] (Conc./MIC 1/4)
  Peptide MIC during treatment with vancomycin: 4 µg/mL
[5]; vancomycin […] (Conc./MIC 1/8)
  Peptide MIC during treatment with vancomycin: 4 µg/mL
[6]; E. coli and MDREC1229
  Synergistic effect of antibacterial activity with existing antibiotics compared with PapMA-1: level similar to that of the PapMA-1 peptide
[6]; erythromycin combined with peptide at 1 μg/ml
  Antibiotic MIC, Erythromycin: 64 µg/mL
[6]; erythromycin combined with peptide at 2 μg/ml
  Antibiotic MIC, Erythromycin: 32 µg/mL
[6]; erythromycin combined with peptide at 4 μg/ml
  Antibiotic MIC, Erythromycin: 8 µg/mL
[6]; erythromycin combined with peptide at 6 μg/ml
  Antibiotic MIC, Erythromycin: 2 µg/mL
[6]; erythromycin combined with peptide at 8 μg/ml
  Antibiotic MIC, Erythromycin: 1 µg/mL
[6]; erythromycin combined with peptide at 16 μg/ml
  Antibiotic MIC, Erythromycin: 0.25 µg/mL
[6]; erythromycin combined with peptide at 32 μg/ml
  Antibiotic MIC, Erythromycin: 0 µg/mL
[6]; erythromycin combined with peptide at 64 μg/ml
  Antibiotic MIC, Erythromycin: 0 µg/mL
[6]; linezolid combined with peptide at 1 μg/ml
  Antibiotic MIC, Linezolid: >128 µg/mL
[6]; linezolid combined with peptide at 2 μg/ml
  Antibiotic MIC, Linezolid: 128 µg/mL
[6]; linezolid combined with peptide at 4 μg/ml
  Antibiotic MIC, Linezolid: 64 µg/mL
[6]; linezolid combined with peptide at 6 μg/ml
  Antibiotic MIC, Linezolid: 32 µg/mL
[6]; linezolid combined with peptide at 8 μg/ml
  Antibiotic MIC, Linezolid: 16 µg/mL
[6]; linezolid combined with peptide at 16 μg/ml
  Antibiotic MIC, Linezolid: 8 µg/mL
[6]; linezolid combined with peptide at 32 μg/ml
  Antibiotic MIC, Linezolid: 0 µg/mL
[6]; linezolid combined with peptide at 64 μg/ml
  Antibiotic MIC, Linezolid: 0 µg/mL
[6]; vancomycin combined with peptide at 1 μg/ml
  Antibiotic MIC, Vancomycin: >128 µg/mL
[6]; vancomycin combined with peptide at 2 μg/ml
  Antibiotic MIC, Vancomycin: >128 µg/mL
[6]; vancomycin combined with peptide at 4 μg/ml
  Antibiotic MIC, Vancomycin: >128 µg/mL
[6]; vancomycin combined with peptide at 6 μg/ml
  Antibiotic MIC, Vancomycin: 64 µg/mL
[6]; vancomycin combined with peptide at 8 μg/ml
  Antibiotic MIC, Vancomycin: 32 µg/mL
[6]; vancomycin combined with peptide at 16 μg/ml
  Antibiotic MIC, Vancomycin: 8 µg/mL
[6]; vancomycin combined with peptide at 32 μg/ml
  Antibiotic MIC, Vancomycin: 0 µg/mL
[6]; vancomycin combined with peptide at 64 μg/ml
  Antibiotic MIC, Vancomycin: 0 µg/mL
[7]; with Erythromycin 16 μg/ml (Conc./MIC 1/8)
  Peptide MIC: 4 µg/mL
[7]; with Erythromycin 32 μg/ml (Conc./MIC 1/4)
  Peptide MIC: 2 µg/mL
[7]; with Erythromycin 64 μg/ml (Conc./MIC 1/2)
  Peptide MIC: 1 µg/mL
[7]; with Erythromycin […] (Conc./MIC 1)
  Peptide MIC: 0 µg/mL
[7]; with Linezolid 32 μg/ml (Conc./MIC 1/8)
  Peptide MIC: 8 µg/mL
[7]; with Linezolid 64 μg/ml (Conc./MIC 1/4)
  Peptide MIC: 4 µg/mL
[7]; with Linezolid […] (Conc./MIC 1)
  Peptide MIC: 0 µg/mL
[7]; with Linezolid […] (Conc./MIC 1/2)
  Peptide MIC: 2 µg/mL
[7]; with Vancomycin 512 μg/ml (Conc./MIC 1/2)
  Peptide MIC: 2 µg/mL
[7]; with Vancomycin 1024 μg/ml (Conc./MIC 1)
  Peptide MIC: 0 µg/mL
[7]; with Vancomycin […] (Conc./MIC 1/4)
  Peptide MIC: 4 µg/mL
[7]; with Vancomycin […] (Conc./MIC 1/8)
  Peptide MIC: 8 µg/mL
[8]; erythromycin 32 μg/ml (Conc./MIC 1/8)
  Peptide MIC during treatment with antibiotic: 2 µg/mL
[8]; erythromycin 64 μg/ml (Conc./MIC 1/4)
  Peptide MIC during treatment with antibiotic: 2 µg/mL
[8]; erythromycin […] (Conc./MIC 1)
  Peptide MIC during treatment with antibiotic: 0 µg/mL
[8]; erythromycin […] (Conc./MIC 1/2)
  Peptide MIC during treatment with antibiotic: 1 µg/mL
[8]; [28]
  Peptide MIC during treatment with antibiotic: 8 µg/mL
[8]; [29]
  Peptide MIC during treatment with antibiotic: 0 µg/mL
[8]; linezolid […] (Conc./MIC 1/2)
  Peptide MIC during treatment with antibiotic: 1 µg/mL
[8]; linezolid […] (Conc./MIC 1/4)
  Peptide MIC during treatment with antibiotic: 4 µg/mL
[8]; [26]
  Peptide MIC during treatment with antibiotic: 2 µg/mL
[8]; [27]
  Peptide MIC during treatment with antibiotic: 2 µg/mL
[8]; vancomycin […] (Conc./MIC 1/4)
  Peptide MIC during treatment with antibiotic: 4 µg/mL
[8]; vancomycin […] (Conc./MIC 1/8)
  Peptide MIC during treatment with antibiotic: 8 µg/mL
[9]; [30]
  Antibiotic MIC, Erythromycin: 32 µg/mL
  Antibiotic MIC, Linezolid: >128 µg/mL
  Antibiotic MIC, Vancomycin: >128 µg/mL
[9]; [31]
  Antibiotic MIC, Erythromycin: 32 µg/mL
  Antibiotic MIC, Linezolid: >128 µg/mL
  Antibiotic MIC, Vancomycin: >128 µg/mL
[9]; [32]
  Antibiotic MIC, Erythromycin: 8 µg/mL
  Antibiotic MIC, Linezolid: 32 µg/mL
  Antibiotic MIC, Vancomycin: 64 µg/mL
[9]; [33]
  Antibiotic MIC, Erythromycin: 2 µg/mL
  Antibiotic MIC, Linezolid: 16 µg/mL
  Antibiotic MIC, Vancomycin: 32 µg/mL
[9]; [34]
  Antibiotic MIC, Erythromycin: 1 µg/mL
  Antibiotic MIC, Linezolid: 16 µg/mL
  Antibiotic MIC, Vancomycin: 16 µg/mL
[9]; [35]
  Antibiotic MIC, Erythromycin: 0.25 µg/mL
  Antibiotic MIC, Linezolid: 2 µg/mL
  Antibiotic MIC, Vancomycin: 8 µg/mL
[9]; [36]
  Antibiotic MIC, Erythromycin: 0 µg/mL
  Antibiotic MIC, Linezolid: 0 µg/mL
  Antibiotic MIC, Vancomycin: 0 µg/mL
[9]; [37]
  Antibiotic MIC, Erythromycin: 0 µg/mL
  Antibiotic MIC, Linezolid: 0 µg/mL
  Antibiotic MIC, Vancomycin: 0 µg/mL
[10]
  Minimal inhibitory concentration MIC: 32 µg/mL (≈ 13.3 µM)
[11]; agent alone
  Minimal inhibitory concentration MIC: 32 µg/mL (≈ 13.3 µM)
[11]; peptide alone, no antibiotic
  Peptide MIC, peptide alone: 32 µg/mL
[12]
  Minimal inhibitory concentration MIC: 32 µg/mL (≈ 13.3 µM)
[13]
  Minimal inhibitory concentration MIC: >128 µg/mL
